Measured values: US4483869A, “Thiocarnitines, process for their preparation and pharmaceutical compositions containing same” (Sigma-Tau Industrie Farmaceutiche Riunite S.p.A., priority 1980, dated 1984)
Structures can show the parent of a compound that is named as a salt.

What was measured:
[1] = test system: rats; test: Protection against X-ray exposure in rats (survival after irradiation); type: in vivo, Albino Wister rats; settings: 20-25 mg Kg^-1 1 hour before irradiation; for Percentage of surviving animals, day 10: 10 days from irradiation, control 90; for Percentage of surviving animals, day 20: 20 days from irradiation, control 20; for Percentage of surviving animals, day 30: 30 days from irradiation, control 10
Procedure: The effect of the compounds of formula (I) towards the damages provoked by X-ray exposure was studied.
The experiment animals, Albino Wister rats, treated with the compounds under examination (20-25 mg Kg^-1 1 hour before irradiation) were irradiated and checked over a time period to detect the onset of toxic effects and the time of survival with respect to the control group. […]
Protective effect of some thiocarnitines of general
formula (I) towards the damage provoked by irradiation
in rats. Percentage of surviving animals at
various days from irradiation.

[2] = test system: rabbit; test: Cutaneous regeneration from burns in the rabbit; type: in vivo; settings: 20 mg Kg^-1 orally once a day for seven days; for Percentage of regenerated tissue, 4th day: control 20; for Percentage of regenerated tissue, 8th day: control 50
Procedure: The ability of the compounds of formula (I) to speed up the cutaneous regeneration from burns has been tested in the rabbit.
A 4 cm^2 cutaneous area of the average-top zone of the test animal back was burned.
The compounds were orally administered in aqueous solution at the dose of 20 mg Kg^-1 once a day for seven days. The area of cutaneous regeneration i.e. the area of the newly formed tissue, was then measured (Table III).
Effect of compounds of formula (I) on cutaneous
regeneration. Percentage of regenerated tissue at the 4th
and 8th day from treatment.

[3] = Acute toxicity in the mouse, Weil's method; settings: in vivo, ip
Text: The acute toxicity of the compounds of general formula (I) has been studied in the mouse with the Weil method (Weil C. S., Biometr. J. 8, 249, 1952).
The LD50 values of some compounds illustrated in Table I, indicate that the compounds are remarkably well tolerated.
LD50, mg Kg^-1, ep in mouse of some thiocarnitines of general
formula (I). Weil's method (N = 5, K = 4) Cl = hydrochloride

[4] = Hygroscopicity and stability to the atmosphere of the isolated product; type: physicochemical; settings: for hygroscopicity: isolated product
[5] = Crossing of the blood-brain barrier
[6] = test system: CoA; test: Transfer of the acetyl group to CoA / acyl group donor; type: biochemical
[7] = test system: acetylcholine; test: Formation of acetylcholine
[8] = "ep" route, Weil's method (N = 5, K = 4)

SMILES	Percentage of surviving animals, day 10 [1]	Percentage of surviving animals, day 20 [1]	Percentage of surviving animals, day 30 [1]	Percentage of regenerated tissue, 4th day [2]	Percentage of regenerated tissue, 8th day [2]	LD50 [3]	LD50 [3, 8]	hygroscopicity [4]	ability to cross the blood-brain barrier [5]	acyl group donor activity [6]	transfer of the acetyl group to CoA ([6]; in the absence of CoA carnitine acetyl transferase)	formation of acetylcholine [7]	stability upon exposure to the atmosphere ([4]; exposure to the atmosphere)
CCCC(CCC)C(=O)SC(CC(=O)O)C[N+](C)(C)C (centres unmarked) [S--dipropylacetyl thiocarnitine Cl, S-dipropylacetil thiocarnitine hydrochloride]	90 Percentage	70 Percentage	50 Percentage	50 Percentage	100 Percentage	350 mg/kg	–	–	–	–	–	–	–
CC(O)CC(=O)SC(CC(=O)O)C[N+](C)(C)C (stereo not drawn) [S--hydroxybutyryl thiocarnitine Cl, S-beta hydroxybutyryl thiocarnitine]	100 Percentage	80 Percentage	60 Percentage	30 Percentage	60 Percentage	–	300 mg/kg	very hygroscopic	–	–	–	–	–
CCC(=O)SC(CC(=O)O)C[N+](C)(C)C (centres unmarked) [S--propionyl thiocarnitine Cl, S-propionyl thiocarnitine halogenide]	90 Percentage	70 Percentage	50 Percentage	30 Percentage	70 Percentage	302 mg/kg	–	–	–	–	–	–	–
CCCC(=O)SC(CC(=O)O)C[N+](C)(C)C (centres unmarked) [S--butyryl thiocarnitine Cl, S-butyryl thiocarnitine halogenide]	90 Percentage	40 Percentage	40 Percentage	20 Percentage	40 Percentage	350 mg/kg	–	–	–	–	–	–	–
CCC(CC)C(=O)SC(CC(=O)O)C[N+](C)(C)C (centres unmarked) [S--diethylacetyl thiocarnitine Cl, S-diethylacetyl thiocarnitine]	80 Percentage	60 Percentage	30 Percentage	50 Percentage	60 Percentage	–	295 mg/kg	highly hygroscopic	–	–	–	–	–
CC(=O)SC(CC(=O)O)C[N+](C)(C)C (centres unmarked) [S--acetyl thiocarnitine Cl, S-acetyl thiocarnitine hydrochloride]	100 Percentage	70 Percentage	60 Percentage	50 Percentage	90 Percentage	–	294 mg/kg	–	able to cross the blood-brain barrier	potent acyl group donor	able to transfer the acetyl group to CoA directly even in the absence of the enzyme	promotes the formation of acetylcholine	–
C[N+](C)(C)CC(S)CC(=O)O (centres unmarked) [Thiocarnitine, thiocarnitine hydrochloride]	95 Percentage	60 Percentage	50 Percentage	40 Percentage	90 Percentage	–	150 mg/kg	very hygroscopic	–	–	–	–	darkened upon exposure to the atmosphere
